Drawing on patent US10202377B2, “3-(1H-benzo[D]imidazol-2-yl)-1H-pyrazolo[3,4-C]pyridine and therapeutic uses thereof” (Samumed, LLC, priority 2014, dated 2019), this text covers IC50 and EC50 for 23 compounds.

Test [1] concerns Wnt activity (Sp5-Luc reporter, SW480 colon carcinoma cells). In words: Sp5-Luc Wnt reporter gene screening assay in SW480 colon carcinoma cells. Particulars: Homo sapiens. Background: A reporter such as luciferase makes a cellular process visible.
Experimental: The screening assay for Wnt activity is described as follows.
SW480 colon carcinoma cells were transduced with a lentiviral vector expressing luciferase with a human Sp5 promoter consisting of a sequence of eight TCF/LEF binding sites. SW480 cells stably expressing the Sp5-Luc reporter gene and a hygromycin resistance gene were selected by treatment with 150 μg/ml of hygromycin for 7 days. These stably transduced SW480 cells were expanded in cell culture and used for all further screening activities. For Sp5-Luc reporter gene assays, the cells were plated at 10,000 cells/well in 96-well plates with growth medium containing 10% fetal calf serum and incubated overnight at 37° C. and 5% CO2. […] Compound transfer from serially diluted source plates to assay plates containing the cells was accomplished using a pintool (Multimek 96, Beckman equipped with V&P Scientific FP1S50H pins) based liquid handling protocol. This protocol used a slotted pin to transfer 50 nl of compound from a source plate well to an assay plate well containing 50 μl of cells in growth medium. […] Control wells received 50 nl of DMSO treatment for normalization and calculating IC50 values. The treated cells were incubated at 37° C. and 5% CO2 for an additional forty-two hours. Following incubation, the growth medium was removed and 50 μl of BrightGlo luminescence reagent (Promega) was added to each well of the 96-well assay plates. The plates were placed on an orbital shaker for 5 min and then luminescence was quantified on the Victor3 (Perkin Elmer) plate reader.
Test [2] concerns primary human fibroblasts derived from IPF patients (LL29 cells). Put plainly: Inhibition of fibrosis (αSMA staining) in TGF-β1-treated primary human fibroblasts from IPF patients. Particulars: Fibroblast, 96 h, TGF-β1 20 ng/mL, 4 days. It counts as cell-based. Here is the method: The above synthesized compounds were screened using primary human fibroblasts (derived from IPF patients) treated with TGF-β1 to determine their ability to inhibit the fibrotic process.
Compound Screening: Each compound was dissolved in DMSO as a 10 mM stock and used to prepare compound source plates. […] LL29 cells were plated at 1,500 cells/well in 80 μl/well F12 medium supplemented with 1% Fetal Bovine Serum. One hour after addition of the cells, TGF-β1 (Peprotech; 20 ng/mL) was added to the plates to induce fibrosis (ref. 1 and 2 above). Wells treated with TGF-β1 and containing DMSO were used as controls. Cells were incubated at 37° C. and 5% CO2 for 4 days. Following incubation for 4 days, SYTOX green nucleic acid stain (Life Technologies [Thermo Fisher Scientific]) was added to the wells at a final concentration of 1 uM and incubated at room temperature for 30 min. Cells were then fixed using 4% formaldehyde (Electron Microscopy Sciences), washed 3 times with PBS followed by blocking and permeabilization using 3% Bovine Serum Albumin (BSA; Sigma) and 0.3% Triton X-100 (Sigma) in PBS. Cells were then stained with antibody specific to α-smooth muscle actin (aSMA; Abcam) (ref. 1 and 2 above) in 3% Bovine Serum Albumin (BSA; Sigma) and 0.3% Triton X-100 (Sigma) in PBS, and incubated overnight at 4° C. […] Dead or apoptotic cells were excluded from analysis based on positive SYTOX green staining. % of total cells positive for αSMA were counted in each well and normalized to the average of 11 wells treated with TGF-β1 on the same plate using Dotmatics' Studies Software. […] The EC50 values are reported.

In test [1], `CC(C)C(=O)Nc1cncc(-c2cc3c(-c4nc5c(-c6ccccc6F)cccc5[nH]4)n[nH]c3cn2)c1` [Compound 61, N-(5-(3-(4-(2-Fluorophenyl)-1H-benzo[d]imidazol-2-yl)-1H-pyrazolo[3,4-c]pyridin-5-yl)pyridin-3-yl)isobutyramide] gave an IC50 of 81.2 nM. In addition, a half-maximal effect in test [2] (EC50) was put at 81 nM.

`CN(C)CCNc1cc(F)cc(-c2cccc3[nH]c(-c4n[nH]c5cnc(-c6cncc(CNCC7CCCC7)c6)cc45)nc23)c1` [Compound 466, N^1-(3-(2-(5-(5-(((Cyclopentylmethyl)amino)methyl)pyridin-3-yl)-1H-pyrazolo[3,4-c]pyridin-3-yl)-1H-benzo[d]imidazol-4-yl)-5-fluorophenyl)-N^2,N^2-dimethylethane-1,2-diamine] yielded an IC50 in test [1] of 466 nM. Also, the EC50 in test [2] amounted to 308 nM.

Turning to `CC(C)Nc1cncc(-c2cc3c(-c4nc5c(-c6ccoc6)cccc5[nH]4)n[nH]c3cn2)c1` [Compound 298, 5-(3-(4-(Furan-3-yl)-1H-benzo[d]imidazol-2-yl)-1H-pyrazolo[3,4-c]pyridin-5-yl)-N-isopropylpyridin-3-amine], half-maximal inhibition in test [1] (IC50) required 12.9 nM. The compound further showed an EC50 in test [2] of 9 nM.

Take `Cc1cn(-c2cccc3[nH]c(-c4n[nH]c5cnc(-c6cncc(NC(=O)C7CCC7)c6)cc45)nc23)cn1` [Compound 202, N-(5-(3-(4-(4-Methyl-1H-imidazol-1-yl)-1H-benzo[d]imidazol-2-yl)-1H-pyrazolo[3,4-c]pyridin-5-yl)pyridin-3-yl)cyclobutanecarboxamide]: in test [1], it took 63.2 nM to reach half-maximal inhibition (IC50). For the same compound, a half-maximal response in test [2] (EC50) required 9 nM.

In turn, `CCC(=O)Nc1cncc(-c2cc3c(-c4nc5c(-c6cccs6)cccc5[nH]4)n[nH]c3cn2)c1` [Compound 313, N-(5-(3-(4-(Thiophen-2-yl)-1H-benzo[d]imidazol-2-yl)-1H-pyrazolo[3,4-c]pyridin-5-yl)pyridin-3-yl)propionamide] returned an IC50 in test [1] of 126 nM. Moreover, in test [2], a half-maximal effect (EC50) was put at 455 nM.

In test [1], `Fc1cccc(-c2cccc3[nH]c(-c4n[nH]c5cnc(C6CCNCC6)cc45)nc23)c1` [Compound 937, 3-(4-(3-Fluorophenyl)-1H-benzo[d]imidazol-2-yl)-5-(piperidin-4-yl)-1H-pyrazolo[3,4-c]pyridine] showed an IC50 of 3160 nM. In test [2], the EC50 stood at 9990 nM.

Consider `CC(C)Nc1cncc(-c2cc3c(-c4nc5c(-c6cccnc6)cccc5[nH]4)n[nH]c3cn2)c1` [Compound 90, N-Isopropyl-5-(3-(4-(pyridin-3-yl)-1H-benzo[d]imidazol-2-yl)-1H-pyrazolo[3,4-c]pyridin-5-yl)pyridin-3-amine], for which it took 13.9 nM to reach half-maximal inhibition in test [1] (IC50). The EC50 in test [2] was determined as 9 nM.

With `CCNCc1cncc(-c2cc3c(-c4nc5c(-c6ccccn6)cccc5[nH]4)n[nH]c3cn2)c1` [Compound 136, N-((5-(3-(4-(Pyridin-2-yl)-1H-benzo[d]imidazol-2-yl)-1H-pyrazolo[3,4-c]pyridin-5-yl)pyridin-3-yl)methyl)ethanamine], in test [1], the half-maximal inhibitory concentration (IC50) amounted to 177 nM. In addition, in test [2], it took 122 nM to reach a half-maximal effect (EC50).

As for `Cc1ccc(-c2cccc3[nH]c(-c4n[nH]c5cnc(-c6cncc(NC(=O)CC(C)C)c6)cc45)nc23)s1` [Compound 366, 3-Methyl-N-(5-(3-(4-(5-methylthiophen-2-yl)-1H-benzo[d]imidazol-2-yl)-1H-pyrazolo[3,4-c]pyridin-5-yl)pyridin-3-yl)butanamide], the IC50 in test [1] turned out to be 31.1 nM. For the same compound, a half-maximal effect in test [2] (EC50) was put at 224 nM.

`Fc1cccc(-c2cccc3[nH]c(-c4n[nH]c5cnc(-c6ccncc6)cc45)nc23)c1` [Compound 952, 3-(4-(3-Fluorophenyl)-1H-benzo[d]imidazol-2-yl)-5-(pyridin-4-yl)-1H-pyrazolo[3,4-c]pyridine] registered an IC50 in test [1] of 53 nM. The EC50 in test [2] came to 9990 nM.

The compound `CC(C)C(=O)Nc1cncc(-c2cc3c(-c4nc5c(-c6ccoc6)cccc5[nH]4)n[nH]c3cn2)c1` [Compound 295, N-(5-(3-(4-(Furan-3-yl)-1H-benzo[d]imidazol-2-yl)-1H-pyrazolo[3,4-c]pyridin-5-yl)pyridin-3-yl)isobutyramide] registered an IC50 in test [1] of 39.3 nM. The EC50 in test [2] amounted to 249 nM.

Turning to `O=C(Nc1cncc(-c2cc3c(-c4nc5c(-c6ccsc6)cccc5[nH]4)n[nH]c3cn2)c1)c1ccccc1` [Compound 271, N-(5-(3-(4-(Thiophen-3-yl)-1H-benzo[d]imidazol-2-yl)-1H-pyrazolo[3,4-c]pyridin-5-yl)pyridin-3-yl)benzamide], the IC50 in test [1] is 53.8 nM. A half-maximal effect in test [2] (EC50) was put at 9 nM.

The compound `O=C(Nc1cncc(-c2cc3c(-c4nc5c(-c6ccccn6)cccc5[nH]4)n[nH]c3cn2)c1)c1ccccc1` [Compound 141, N-(5-(3-(4-(Pyridin-2-yl)-1H-benzo[d]imidazol-2-yl)-1H-pyrazolo[3,4-c]pyridin-5-yl)pyridin-3-yl)benzamide] displayed an IC50 in test [1] of 411 nM. In test [2], this compound displayed an EC50 of 39 nM.

For `CC(C)C(=O)Nc1cncc(-c2cc3c(-c4nc5c(-c6cccs6)cccc5[nH]4)n[nH]c3cn2)c1` [Compound 321, N-(5-(3-(4-(Thiophen-2-yl)-1H-benzo[d]imidazol-2-yl)-1H-pyrazolo[3,4-c]pyridin-5-yl)pyridin-3-yl)isobutyramide], the IC50 in test [1] amounted to 16.3 nM. The compound also came in with an EC50 in test [2] of 306 nM.

For `FC1(F)CCN(Cc2cncc(-c3cc4c(-c5nc6c(-c7cccs7)cccc6[nH]5)n[nH]c4cn3)c2)C1` [Compound 337, 5-(5-((3,3-Difluoropyrrolidin-1-yl)methyl)pyridin-3-yl)-3-(4-(thiophen-2-yl)-1H-benzo[d]imidazol-2-yl)-1H-pyrazolo[3,4-c]pyridine], in test [1], inhibition was half-maximal at 90.8 nM (IC50). In test [2], the EC50 was 9 nM.

As to `CN(C)CCNc1cc(F)cc(-c2cccc3[nH]c(-c4n[nH]c5cnc(-c6cncc(NC(=O)C(C)(C)C)c6)cc45)nc23)c1` [Compound 450, N-(5-(3-(4-(3-((2-(Dimethylamino)ethyl)amino)-5-fluorophenyl)-1H-benzo[d]imidazol-2-yl)-1H-pyrazolo[3,4-c]pyridin-5-yl)pyridin-3-yl)pivalamide], half-maximal inhibition in test [1] (IC50) was put at 159 nM. For the same compound, in test [2], the EC50 was determined as 85 nM.

Take `CC(=O)c1ccc(-c2cccc3[nH]c(-c4n[nH]c5cnc(-c6cncc(NC(=O)C7CCCCC7)c6)cc45)nc23)s1` [Compound 412, N-(5-(3-(4-(5-Acetylthiophen-2-yl)-1H-benzo[d]imidazol-2-yl)-1H-pyrazolo[3,4-c]pyridin-5-yl)pyridin-3-yl)cyclohexanecarboxamide]: the IC50 in test [1] was 150 nM. In test [2], it took 9180 nM to reach a half-maximal effect (EC50).

In turn, `O=C(Nc1cncc(-c2cc3c(-c4nc5c(N6CCCCC6)cccc5[nH]4)n[nH]c3cn2)c1)C1CC1` [Compound 175, N-(5-(3-(4-(Piperidin-1-yl)-1H-benzo[d]imidazol-2-yl)-1H-pyrazolo[3,4-c]pyridin-5-yl)pyridin-3-yl)cyclopropanecarboxamide] registered an IC50 in test [1] of 76.9 nM. The same compound displayed an EC50 in test [2] of 187 nM.

As for `CCNCc1cncc(-c2cc3c(-c4nc5c(-c6ccoc6)cccc5[nH]4)n[nH]c3cn2)c1` [Compound 292, N-((5-(3-(4-(Furan-3-yl)-1H-benzo[d]imidazol-2-yl)-1H-pyrazolo[3,4-c]pyridin-5-yl)pyridin-3-yl)methyl)ethanamine], in test [1], the half-inhibitory concentration (IC50) was 29.6 nM. The compound further displayed an EC50 in test [2] of 9 nM.

In test [1], `Cc1ccncc1-c1cc2c(-c3nc4c(-c5ccsc5)cccc4[nH]3)n[nH]c2cn1` [Compound 265, 5-(4-Methylpyridin-3-yl)-3-(4-(thiophen-3-yl)-1H-benzo[d]imidazol-2-yl)-1H-pyrazolo[3,4-c]pyridine] registered an IC50 of 19.4 nM. Besides, the EC50 in test [2] was 9 nM.

In test [1], `CC(C)(C)C(=O)Nc1cncc(-c2cc3c(-c4nc5c(-c6cc(F)cc(CNS(C)(=O)=O)c6)cccc5[nH]4)n[nH]c3cn2)c1` [Compound 424, N-(5-(3-(4-(3-Fluoro-5-(methylsulfonamidomethyl)phenyl)-1H-benzo[d]imidazol-2-yl)-1H-pyrazolo[3,4-c]pyridin-5-yl)pyridin-3-yl)pivalamide] came in with an IC50 of 19.9 nM. In addition, in test [2], the EC50 is 51 nM.

`Cc1ccc(-c2cccc3[nH]c(-c4n[nH]c5cnc(-c6cncc(CN7CCCCC7)c6)cc45)nc23)s1` [Compound 379, 3-(4-(5-Methylthiophen-2-yl)-1H-benzo[d]imidazol-2-yl)-5-(5-(piperidin-1-ylmethyl)pyridin-3-yl)-1H-pyrazolo[3,4-c]pyridine] gave an IC50 in test [1] of 359 nM. Further, a half-maximal effect in test [2] (EC50) was put at 9 nM.

In turn, `CN(C)CCOc1cncc(-c2cc3c(-c4nc5c(-c6cccc(F)c6)cccc5[nH]4)n[nH]c3cn2)c1` [Compound 947, 2-((5-(3-(4-(3-Fluorophenyl)-1H-benzo[d]imidazol-2-yl)-1H-pyrazolo[3,4-c]pyridin-5-yl)pyridin-3-yl)oxy)-N,N-dimethylethan-1-amine] gave a half-inhibitory concentration (IC50) in test [1] of 463 nM. In addition, it took 9990 nM to reach a half-maximal effect in test [2] (EC50).

One may read the IC50 as the midpoint of a concentration-inhibition curve. Higher therefore signals weaker potency in that assay. The term EC50 denotes the midpoint of the concentration-response curve. A higher EC50 goes with a less potent agent.
